Entries after “also recorded” stand apart in the source; their conditions may differ.
Tests used:
sorted HSC, MPP or GMP = assay: Colony forming assay (CFC) in methylcellulose; assay type: cell-based, human; settings: for cloning efficiency of the HSC / relative number of colonies relative to vehicle control: 35 nM UM171 or 0.5 uM SR1, 10 days
Procedure: (A) Dose response of varying [4HPR] in CB at day 3 post-treatment showing 2 uM 4HPR gives the relative half maximal number of viable cells compared to control. All experiments following are at this 4HPR concentration unless otherwise indicated. […] (C) LC/MS was used to profile the ceramide (Cer), dihydroceramide (dhCer), sphingosine (sph), dihydrosphingosine (dhSph), S1P and dihydro-S1P (dhS1P) levels in lin− CB cells cultured for 8 days with control or 4HPR (n=2). […] (D) HSC, MPP, or GMP were sorted into methylcellulose for CFC assays in the presence of control or 4HPR and colonies were blindly scored following 10-11 days for (D) colonies/100 cells and ((E) colony distribution are shown (n=7). (F) Flow cytometry for erythroid (GlyA+) and monocytic (CD14+) markers in live cells from pooled CFC colonies were scored (n=6). (F) Relative number of colonies from CFC assays comparing the effect of 4HPR or ATRA (n=3) on sorted HSC, MPP or GMP. […]
(A) Representative flow cytometry analysis of the primitive hierarchy within the CD34+ fraction of day 8 cultured lin− CB cells after the indicated treatments for CD90 and CD45RA, n=4. B) The distribution of cultured CD34+CD90+CD45RA− (cHSC), CD34+CD90−CD45RA− (cMPP), and […] for the indicated conditions at day 8 of ex vivo culture following CD34 enrichment. Statistical significance assayed through unpaired t-test relative to vehicle control (Ctrl). The relative number of colonies resulting from (C) HSC or (D) MPP grown in methylcellulose CFC assays in the presence of vehicle control (−) or the indicated combination of 2 uM 4HPR, or 35 nM UM171 or 0.5 uM SR1 at 10 days. Statistical significance is calculated via unpaired t-test relative to ctrl (black) or to the presence of absence of 4HPR treatment for UM171 or SR1.
However, the functional consequence of 4HPR treatment on human cord blood primitive cells is unknown. A dose titration of 4HPR was performed on lineage-depleted CB (lin-CB) cells and 2 uM was calculated to give half maximal cell viability at 3 days post-treatment compared to vehicle control (ctrl), a concentration reported in cell lines to antagonize DEGS1 enzymatic function, and used for all subsequent experiments unless otherwise indicated (FIG. 1A). […] Next, we utilized the colony forming assay (CFC) for in vitro progenitor function to determine if 4HPR treatment alters functional output from isolated populations of CB HSPC. […] This is unsurprising as retinoic acid signaling is a potent differentiation signal in hematopoietic cells. Thus, 4HPR inhibition of sphingolipid homeostasis selectively enhances cloning efficiency in human HSC.
Given the CD34 compartment where functional HSC should reside following ex vivo expansion is critical to blood production, we asked if there were immunophenotypic alterations following 4HPR treatment. StemRegenin-1 (SR1) or UM171 are two molecules whose action on CB has been reported to expand CD34+ cells dramatically and lead to increase reconstitution in xenotransplantation (Fares, et al Science, 2014: Boitano, Science, 2010). We sought to ask if limiting CD34+ expansion with 4HPR treatment is synergistic with these known agonists of CB ex vivo expansion. Lin− CB were cultured with these 3 small molecules alone or in combination for 8 days and the CD34 compartment was isolated and analyzed by flow cytometry further with CD90 and CD45RA to look at immunophenotypic cultured HSC (cHSC), MPP (cMPP) and committed progenitors (cProg). These populations were sorted from lin-CB at […] following expansion and transplanted into NSG mice for 16 weeks to ascertain that cProg cells are committed progenitors, while cHSC and cMPP retain multipotency following culture (FIG. 8A, B). […]

sorted HSC and MPP = assay: 8 day ex vivo expansion of sorted HSC and MPP, CD34+ compartment by flow cytometry; assay type: cell-based, human; settings: D8 after ex vivo expansion
Description: B) Lymphoid and C) myeloid engraftment from (A) at 16 weeks post-transplantion. […] F) Flow cytometry plots showing the CD34+ population from 8 day cultured HSC.
Given the CD34 compartment where functional HSC should reside following ex vivo expansion is critical to blood production, we asked if there were immunophenotypic alterations following 4HPR treatment. StemRegenin-1 (SR1) or UM171 are two molecules whose action on CB has been reported to expand CD34+ cells dramatically and lead to increase reconstitution in xenotransplantation (Fares, et al Science, 2014: Boitano, Science, 2010). We sought to ask if limiting CD34+ expansion with 4HPR treatment is synergistic with these known agonists of CB ex vivo expansion. Lin− CB were cultured with these 3 small molecules alone or in combination for 8 days and the CD34 compartment was isolated and analyzed by flow cytometry further with CD90 and CD45RA to look at immunophenotypic cultured HSC (cHSC), MPP (cMPP) and committed progenitors (cProg). […] To further elucidate the specific action of 4HPR on HSC over MPP and compare this to UM171 and SR1, sorted HSC and MPP were put into ex vivo expansion conditions for 8 days with the same treatments as in FIG. 7A, B and their growth and CD34+ compartment were monitored by flow cytometry (FIG. 8D-F). […]

In the case of `CC1=C(/C=C/C(C)=C/C=C/C(C)=C/C(=O)O)C(C)(C)CCC1` [ATRA, all-trans retinoic acid], the colony output (sorted HSC, MPP or GMP; ATRA treatment, HSC, MPP, GMP) is reported as “decreases colony output from all HSPC populations”.

For `CC(C)n1cnc2c(NCCc3ccc(O)cc3)nc(-c3csc4ccccc34)nc21` [SR1, StemRegenin-1], the “cloning efficiency of the HSC” value (sorted HSC, MPP or GMP) was “both decreased cloning efficiency of the HSC”, the “relative number of colonies relative to vehicle control” value (sorted HSC, MPP or GMP) was “Neither UM171 nor SR1 altered relative number of colonies” and the “primitive CD34+ cells from sorted HSC and MPP” value (sorted HSC and MPP) was “promote CD34+ expansion more from MPP than HSC; also recorded: occurs primarily in sorted MPP, not HSC”.

With `Cn1nnc(-c2ccc3c(c2)[nH]c2nc(Cc4ccccc4)nc(N[C@H]4CC[C@H](N)CC4)c23)n1` [UM171, (1r,4r)-N1-(2-benzyl-7-(2-methyl-2H-tetrazol-5-yl)-9H-pyrimido[4,5-b]indol-4-yl)cyclohexane-1,4-diamine] the “cloning efficiency of the HSC” value (sorted HSC, MPP or GMP) was “both decreased cloning efficiency of the HSC”, the “relative number of colonies relative to vehicle control” value (sorted HSC, MPP or GMP) was “Neither UM171 nor SR1 altered relative number of colonies” and the “primitive CD34+ cells from sorted HSC and MPP” value (sorted HSC and MPP) was “promote CD34+ expansion more from MPP than HSC; also recorded: dramatically increases primitive CD34+ from both HSC and MPP”.
